Literature values as cited in patent US20030157171A1 (priority 2003, published 2003).

Row | water solubility at pH values below 7.0 (pH below 7.0) | water solubility (in words) | SMILES
1 | low |  | C[C@H](CCC(=O)O)[C@H]1CC[C@H]2[C@@H]3[C@@H](O)C[C@@H]4C[C@H](O)CC[C@]4(C)[C@H]3CC[C@]12C [Ursodeoxycholic Acid]
2 |  | poorly water soluble | COc1ccc2c(c1)c(CC(=O)O)c(C)n2C(=O)c1ccc(Cl)cc1 [Indomethacin]
